# pEC50, pIC50: −log10 of the molar value. Like-named read-outs stand apart in the source and are kept apart here.
# Legend:
# [1] = tested on: RVFV strain MP12; test: microbe, parasite or virus in culture; format: cell-based, Rift Valley Fever Virus; conditions: for pEC50: Rift Valley fever virus, Vero, read-out: Estimated EC50
# [2] = tested on: RVFV; test: microbe, parasite or virus in culture; format: cell-based, Rift Valley Fever Virus; conditions: for EC50: Rift Valley fever virus, Vero, 24 h, read-out: RVFV (EC50, μM)
# [3] = tested on: Staphylococcus spp.; test: Inhibition of Staphylococcus spp. growth, broth microdilution; format: cell-based, S. saprophyticus or S. aureus; conditions: Staphylococcus; 16-24 hours, Mueller-Hinton broth; — = no measurable MIC80
# [4] = tested on: Escherichia coli; test: Inhibition of Escherichia coli growth, broth microdilution; format: cell-based; conditions: Escherichia coli; 16-24 hours, Mueller-Hinton broth; — = inactive; read-out: E. coli (MIC80)
# [5] = tested on: C. neoformans; test: Inhibition of C. neoformans growth, limiting dilution assay; format: cell-based, Cryptococcus neoformans; conditions: Cryptococcus neoformans
# [6] = Quantitative cytotoxicity in Vero cells, crystal violet staining of EC50 plates; conditions: African green monkey
# [7] = molecular target: T1, human ribonuclease H1 (Homo sapiens, UniProt O60930); test: biochemical; format: biochemical
# T1 construct: made in house; host or cells: E. coli
# T1 sequence (O60930 1-286): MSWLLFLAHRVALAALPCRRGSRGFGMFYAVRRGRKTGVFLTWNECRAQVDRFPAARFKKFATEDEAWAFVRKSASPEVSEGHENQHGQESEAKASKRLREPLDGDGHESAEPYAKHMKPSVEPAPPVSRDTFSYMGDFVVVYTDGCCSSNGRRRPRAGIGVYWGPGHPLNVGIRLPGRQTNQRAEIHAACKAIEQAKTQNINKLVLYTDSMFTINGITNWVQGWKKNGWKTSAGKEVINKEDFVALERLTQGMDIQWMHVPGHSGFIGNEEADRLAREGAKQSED
# [8] = Cytotoxicity in HepDES19 cells, MTS assay; conditions: human
# [9] = in vitro; conditions: African green monkey
# [10] = tested on: RVFV; test: microbe, parasite or virus in culture; format: cell-based, Rift Valley Fever Virus; conditions: Rift Valley fever virus, A549, 24 h
# [11] = in vitro; conditions: human
# [12] = 48 hours at 35° C., YNB-02, read-out: C. neoformans (MIC80)
# [13] = HepDES19 cells (HepG2-derived hepatoblastoma cell line)
# [14] = 48 h, read-out: C. neoformans (MIC80, μM)
SMILES,pEC50 [1],EC50 [2],"MIC80 [5, 12]",CC50 at 1 day [6],pIC50 [7],"CC50 at 3 days [8, 13]",CC50 [9],also measured
"CCOC(=O)c1sc(NC(=O)CSc2nnc(Cc3ccccc3)o2)c(C#N)c1C [Compound 6, reference compound]",≤ 3.92,–,–,–,–,–,–,–
"O=c1c(O)c(-c2ccc(O)c(O)c2)oc2cc(O)c(O)c(O)c12 [Compound 7, Quercetagetin, reference compound]",≤ 3.92,–,–,–,–,–,–,–
"NC(=O)c1c(N)sc2c1CCCCC2 [Compound 22, reference compound]",≤ 3.92,–,–,–,–,–,–,–
"CC(C)c1ccc(O)c(=O)c(O)c1 [Compound 46, β-thujaplicinol]",–,13.8 µM,8 µM,> 250 µM,–,–,–,MIC80 [3]: 20 µM; MIC80 [4]: 44 µM
"CC(C)c1cccc(=O)c(O)c1 [Compound 47, β-thujaplicin, reference compound]",≤ 3.92,–,–,–,–,–,–,"activity against RVFV in the primary screen, in words [1]: inactive"
"CC(C)c1ccc(O)c(=O)cc1 [Compound 48, γ-thujaplicin, reference compound]",≤ 3.92,–,–,–,–,–,–,"activity against RVFV in the primary screen, in words [1]: inactive"
Cc1cc(O)c(=O)c(O)cc1C(=O)c1ccccc1 [Compound 111],–,19 µM,36 µM,> 250 µM,4.32,–,–,–
Cc1cc(O)c(=O)c(O)cc1-c1ccccc1 [Compound 113],–,10.3 µM,24 µM,> 250 µM,3.76,–,–,–
Cc1cc(O)c(=O)c(O)cc1C(=O)c1ccc(-c2ccccc2)cc1 [Compound 118],–,11 µM,15 µM,248 µM,< 3.30,–,–,–
Cc1cc(O)c(=O)c(O)cc1C(=O)C1CCCCC1 [Compound 120],–,15.6 µM,12 µM,> 250 µM,4.09,–,–,–
"O=C(O)CC(=O)CC(=O)c1cccs1 [Compound 129, reference compound]",≤ 3.92,–,–,–,–,–,–,–
"O=C1c2ccccc2C(=O)N1O [Compound 138, reference compound]",≤ 3.92,–,–,–,–,–,–,–
COC(=O)c1c(C)cc(O)c(=O)c(O)c1O [Compound 196],–,23.9 µM,–,> 250 µM,3.39,6 µM,–,MIC80 [3]: 67 µM
CC1=CC(O)N(O)C(O)=C1/C(C)=N/c1ccccc1N (stereo not shown) [Compound 208],4.85,> 120 µM,–,> 250 µM,3.71,–,≥ 120 µM,"MIC80 [5, 14]: 30 µM; CC50 at 3 days [8]: 14.4 µM"
Cc1ccc(O)c(=O)c(O)c1 [Compound 210],5.10,14.6 µM,15 µM,283 µM,4.07,–,≥ 120 µM,–
Cc1cc(O)c(=O)c(O)cc1-c1ccc(-c2cccc3ccccc23)cc1 [Compound 234],4.72,–,–,–,–,–,≥ 120 µM,–
O=c1c(O)ccc(-c2ccco2)cc1O [Compound 265],–,15.4 µM,11 µM,> 250 µM,4.24,–,–,MIC80 [3]: 30 µM
CC(=O)c1c(C)cc(O)c(=O)c(O)c1Br [Compound 320],5.70,20.1 µM,49 µM,> 120 µM,4.43,49.5 µM,–,pEC50 [10]: 4.04; CC50 [11]: ≥ 120 µM
O=C1C=CC(=O)c2ccccc21 [Compound 327],5.70,39.7 µM,9.1 µM,42.9 µM,4.33,18.5 µM,–,pEC50 [10]: 4.71; CC50 [11]: 27.5 µM
CC(=O)c1c(C)cc(O)c(=O)c(O)c1-c1ccccc1 [Compound 330],5.70,9.5 µM,4 µM,> 300 µM,3.32,56.2 µM,–,MIC80 [3]: 44 µM; pEC50 [10]: 4.37; CC50 [11]: ≥ 120 µM
CC(=O)c1c(C)cc(O)c(=O)c(O)c1-c1cccc2ccccc12 [Compound 331],5.70,15.8 µM,11 µM,80.4 µM,3.35,36.6 µM,–,MIC80 [3]: 67 µM; pEC50 [10]: 4.75; CC50 [11]: ≥ 120 µM

SMILES,pEC50 [1],EC50 [2],"MIC80 [5, 12]",CC50 at 1 day [6],pIC50 [7],"CC50 at 3 days [8, 13]",CC50 [9],also measured
COC(=O)c1c(C)cc(O)c(=O)c(O)c1Br [Compound 335],5.52,40.8 µM,–,> 120 µM,3.95,–,–,"MIC80 [5, 14]: 50 µM; pEC50 [10]: ≤ 3.92; CC50 [11]: 96.2 µM"
Cc1cc(O)c(=O)c(O)cc1S(=O)(=O)c1ccccc1 [Compound 336],5.52,9 µM,50 µM,65.8 µM,–,–,–,pIC50 ([7]; read-out: Human RNaseH1 (IC50)): 4.07
Cc1cc(O)c(=O)c(O)cc1C(=O)c1ccc(Br)cc1 [Compound 358],–,9 µM,11 µM,> 250 µM,4.37,12.5 µM,–,MIC80 [4]: 20 µM
CC(=O)c1c(C)cc(O)c(=O)c(O)c1Cl [Compound 368],–,25.4 µM,24 µM,> 250 µM,3.94,31 µM,–,–
CSc1cccc(O)c(=O)c1O [Compound 385],–,25.2 µM,24 µM,> 250 µM,3.75,> 100 µM,–,–
Cc1cc(O)c(=O)c(O)cc1C(=O)N1CCCCC1 [Compound 390],7.00,11.9 µM,11 µM,> 250 µM,3.97,29.8 µM,–,"activity against RVFV in the primary screen, in words [1]: active; pEC50 [10]: 5.03; CC50 [11]: ≥ 120 µM"
C/C(=N\c1cccc(Oc2ccccc2)c1)c1c(C)cc(=O)n(O)c1O [Compound 515],4.85,24.3 µM,11 µM,> 120 µM,3.21,71.3 µM,≥ 120 µM,pEC50 [10]: ≤ 3.92; CC50 [11]: 93.6 µM
C/C(=N\c1ccccc1F)c1c(C)cc(=O)n(O)c1O [Compound 516],4.72,–,–,–,–,–,≥ 120 µM,–
C/C(=N\c1ccc(C(F)(F)F)cc1)c1c(C)cc(=O)n(O)c1O [Compound 517],4.89,> 120 µM,24 µM,> 120 µM,3.87,91 µM,≥ 120 µM,pEC50 [10]: 4.02; CC50 [11]: 71.8 µM
COc1ccc(CO/N=C(\C)c2c[nH]c(=O)[nH]c2=O)cc1 [Compound 522],≤ 3.92,–,–,–,–,–,1 µM,–
Cc1cc(O)c(=O)c(O)cc1C(=O)NCc1ccc(-c2ccccc2)cc1 [Compound 539],5.00,18.6 µM,4.5 µM,> 300 µM,3.98,3.6 µM,71 µM,MIC80 [3]: 38 µM
C/C(=N\c1ccccc1Cl)c1c(C)cc(O)n(O)c1=O [Compound 668],4.96,14 to 20 µM,–,> 120 µM,3.78,76.8 µM,≥ 120 µM,pEC50 ([2]; read-out: RVFV (EC50)): 4.72; pEC50 [10]: 4.45; CC50 [11]: 82 µM
COc1ccc(Cl)cc1C(=O)Sc1cccccc1=O [Compound 681],≤ 3.92,–,–,–,–,–,2 µM,–
Cc1ccc(CNC(=O)c2cc(O)c(=O)c(O)cc2C)c(C)c1 [Compound 809],4.77,–,–,–,–,–,64 µM,–
Cc1cc(O)c(=O)c(O)cc1C(=O)Nc1cccc(OCc2ccccc2)c1 [Compound 836],4.89,–,–,–,–,–,≥ 120 µM,–
Cc1ccc(Sc2cccc(O)c(=O)c2O)cc1 [Compound 838],5.10,12.7 µM,1 µM,> 300 µM,4.00,18.6 µM,86 µM,–
CCCCCCSc1cccc(O)c(=O)c1O [Compound 840],4.85,31.6 µM,1 µM,> 120 µM,4.14,21.5 µM,≥ 120 µM,pEC50 [10]: 4.81; CC50 [11]: ≥ 120 µM
Cc1cc(O)c(=O)c(O)cc1C(=O)N1CCN(C(=O)C2COc3ccccc3O2)CC1 (stereo not shown) [Compound 876],–,–,–,–,–,–,≥ 120 µM,–
Cc1cc(O)c(=O)c(O)cc1C(=O)N1CCN(c2ccc([N+](=O)[O-])c3nonc23)CC1 [Compound 920],4.72,–,–,–,–,–,≥ 120 µM,–
Cc1cc(O)c(=O)c(O)cc1C(=O)NCc1ccc(N2CCCC2)cc1 [Compound 1019],4.72,–,–,–,–,–,≥ 120 µM,–
CCCCNC(=O)c1cc(O)c(=O)c(O)cc1C [Compound 1039],5.22,8.9 µM,12 µM,> 120 µM,–,–,≥ 120 µM,pEC50 [10]: 4.81; CC50 [11]: ≥ 120 µM

# — patent US12121500B2, “Inhibitors of Bunyaviridae and uses thereof” (priority 2020, dated 2024)
